# Reference: the NIST ThermoML archive (doi:10.1016/j.fluid.2018.04.007)
# Numbers after ± are expanded uncertainties.
# How the values were obtained:
# [1] = refractive index (Na D-line) (dimensionless); xn = mol fraction of the nth substance listed; settings: 101 kPa, Liquid, Standard Abbe refractometry
# [2] = relative permittivity at various frequencies (dimensionless); xn = mol fraction of the nth substance listed; settings: 101 kPa, Liquid, Frequency=1 MHz, Parallel plate capacitor
smiles,measurement,setting,value
CCCCCCN [1-hexanamine] + CCCCCCCO,refractive index,"[1]; 293.15 K, x2 = 0",1.41807 ± 0.00033
same,refractive index,"[1]; 293.15 K, x2 = 0.056",1.41916 ± 0.00033
same,refractive index,"[1]; 293.15 K, x2 = 0.1018",1.41999 ± 0.00033
same,refractive index,"[1]; 293.15 K, x2 = 0.1463",1.42077 ± 0.00033
same,refractive index,"[1]; 293.15 K, x2 = 0.2047",1.42171 ± 0.00033
same,refractive index,"[1]; 293.15 K, x2 = 0.3044",1.4231 ± 0.00033
same,refractive index,"[1]; 293.15 K, x2 = 0.4059",1.42423 ± 0.00033
same,refractive index,"[1]; 293.15 K, x2 = 0.5044",1.42503 ± 0.00033
same,refractive index,"[1]; 293.15 K, x2 = 0.602",1.4255 ± 0.00033
same,refractive index,"[1]; 293.15 K, x2 = 0.7029",1.42563 ± 0.00033
same,refractive index,"[1]; 293.15 K, x2 = 0.7979",1.42545 ± 0.00033
same,refractive index,"[1]; 293.15 K, x2 = 0.8534",1.42521 ± 0.00033
same,refractive index,"[1]; 293.15 K, x2 = 0.8986",1.42496 ± 0.00033
same,refractive index,"[1]; 293.15 K, x2 = 0.9472",1.42464 ± 0.00033
same,refractive index,"[1]; 298.15 K, x2 = 0",1.41563 ± 0.00033
same,refractive index,"[1]; 298.15 K, x2 = 0.056",1.41674 ± 0.00033
same,refractive index,"[1]; 298.15 K, x2 = 0.1018",1.41761 ± 0.00033
same,refractive index,"[1]; 298.15 K, x2 = 0.1463",1.4184 ± 0.00033
same,refractive index,"[1]; 298.15 K, x2 = 0.2047",1.41937 ± 0.00033
same,refractive index,"[1]; 298.15 K, x2 = 0.3044",1.4208 ± 0.00033
same,refractive index,"[1]; 298.15 K, x2 = 0.4059",1.42197 ± 0.00033
same,refractive index,"[1]; 298.15 K, x2 = 0.5044",1.4228 ± 0.00033
same,refractive index,"[1]; 298.15 K, x2 = 0.602",1.42331 ± 0.00033
same,refractive index,"[1]; 298.15 K, x2 = 0.7029",1.42351 ± 0.00033
same,refractive index,"[1]; 298.15 K, x2 = 0.7979",1.42339 ± 0.00033
same,refractive index,"[1]; 298.15 K, x2 = 0.8534",1.4232 ± 0.00033
same,refractive index,"[1]; 298.15 K, x2 = 0.8986",1.42299 ± 0.00033
same,refractive index,"[1]; 298.15 K, x2 = 0.9472",1.42271 ± 0.00033
same,refractive index,"[1]; 303.15 K, x2 = 0",1.41321 ± 0.00033
same,refractive index,"[1]; 303.15 K, x2 = 0.056",1.41434 ± 0.00033
same,refractive index,"[1]; 303.15 K, x2 = 0.1018",1.41523 ± 0.00033
same,refractive index,"[1]; 303.15 K, x2 = 0.1463",1.41604 ± 0.00033
same,refractive index,"[1]; 303.15 K, x2 = 0.2047",1.41703 ± 0.00033
same,refractive index,"[1]; 303.15 K, x2 = 0.3044",1.41853 ± 0.00033
same,refractive index,"[1]; 303.15 K, x2 = 0.4059",1.41974 ± 0.00033
same,refractive index,"[1]; 303.15 K, x2 = 0.5044",1.42062 ± 0.00033
same,refractive index,"[1]; 303.15 K, x2 = 0.602",1.42116 ± 0.00033
same,refractive index,"[1]; 303.15 K, x2 = 0.7029",1.42142 ± 0.00033
same,refractive index,"[1]; 303.15 K, x2 = 0.7979",1.42136 ± 0.00033
same,refractive index,"[1]; 303.15 K, x2 = 0.8534",1.4212 ± 0.00033
same,refractive index,"[1]; 303.15 K, x2 = 0.8986",1.42103 ± 0.00033
same,refractive index,"[1]; 303.15 K, x2 = 0.9472",1.42079 ± 0.00033
same,relative permittivity,"[2]; 293.15 K, x2 = 0",3.963 ± 0.37
same,relative permittivity,"[2]; 293.15 K, x2 = 0.0503",4.202 ± 0.38
same,relative permittivity,"[2]; 293.15 K, x2 = 0.095",4.414 ± 0.39
same,relative permittivity,"[2]; 293.15 K, x2 = 0.1606",4.731 ± 0.4
same,relative permittivity,"[2]; 293.15 K, x2 = 0.2073",4.97 ± 0.41
same,relative permittivity,"[2]; 293.15 K, x2 = 0.3067",5.497 ± 0.42
same,relative permittivity,"[2]; 293.15 K, x2 = 0.4038",6.064 ± 0.44
same,relative permittivity,"[2]; 293.15 K, x2 = 0.4991",6.671 ± 0.46
same,relative permittivity,"[2]; 293.15 K, x2 = 0.6036",7.425 ± 0.48
same,relative permittivity,"[2]; 293.15 K, x2 = 0.7001",8.239 ± 0.5
same,relative permittivity,"[2]; 293.15 K, x2 = 0.8007",9.272 ± 0.53
same,relative permittivity,"[2]; 293.15 K, x2 = 0.8524",9.877 ± 0.55
same,relative permittivity,"[2]; 293.15 K, x2 = 0.8904",10.381 ± 0.56
same,relative permittivity,"[2]; 293.15 K, x2 = 0.9402",11.091 ± 0.58
same,relative permittivity,"[2]; 298.15 K, x2 = 0",3.903 ± 0.37
same,relative permittivity,"[2]; 298.15 K, x2 = 0.0503",4.133 ± 0.38
same,relative permittivity,"[2]; 298.15 K, x2 = 0.095",4.339 ± 0.38
same,relative permittivity,"[2]; 298.15 K, x2 = 0.1606",4.644 ± 0.39
same,relative permittivity,"[2]; 298.15 K, x2 = 0.2073",4.882 ± 0.4
same,relative permittivity,"[2]; 298.15 K, x2 = 0.3067",5.392 ± 0.42
same,relative permittivity,"[2]; 298.15 K, x2 = 0.4038",5.934 ± 0.44
same,relative permittivity,"[2]; 298.15 K, x2 = 0.4991",6.508 ± 0.46
same,relative permittivity,"[2]; 298.15 K, x2 = 0.6036",7.224 ± 0.48
same,relative permittivity,"[2]; 298.15 K, x2 = 0.7001",7.981 ± 0.5
same,relative permittivity,"[2]; 298.15 K, x2 = 0.8007",8.951 ± 0.52
same,relative permittivity,"[2]; 298.15 K, x2 = 0.8524",9.521 ± 0.54
same,relative permittivity,"[2]; 298.15 K, x2 = 0.8904",9.983 ± 0.55
same,relative permittivity,"[2]; 298.15 K, x2 = 0.9402",10.642 ± 0.57
same,relative permittivity,"[2]; 303.15 K, x2 = 0",3.848 ± 0.36
same,relative permittivity,"[2]; 303.15 K, x2 = 0.0503",4.07 ± 0.37
same,relative permittivity,"[2]; 303.15 K, x2 = 0.095",4.271 ± 0.38
same,relative permittivity,"[2]; 303.15 K, x2 = 0.1606",4.567 ± 0.39
same,relative permittivity,"[2]; 303.15 K, x2 = 0.2073",4.796 ± 0.4
same,relative permittivity,"[2]; 303.15 K, x2 = 0.3067",5.291 ± 0.42
same,relative permittivity,"[2]; 303.15 K, x2 = 0.4038",5.811 ± 0.43
same,relative permittivity,"[2]; 303.15 K, x2 = 0.4991",6.358 ± 0.45
same,relative permittivity,"[2]; 303.15 K, x2 = 0.6036",7.035 ± 0.47
same,relative permittivity,"[2]; 303.15 K, x2 = 0.7001",7.746 ± 0.49
same,relative permittivity,"[2]; 303.15 K, x2 = 0.8007",8.651 ± 0.52
same,relative permittivity,"[2]; 303.15 K, x2 = 0.8524",9.177 ± 0.53
same,relative permittivity,"[2]; 303.15 K, x2 = 0.8904",9.607 ± 0.54
same,relative permittivity,"[2]; 303.15 K, x2 = 0.9402",10.222 ± 0.56
